In EP0882732B1, “Taxoid derivative and method of producing thereof” (Ensuiko Sugar Refining Company, Limited, priority 1997, dated 1998):
Converted amounts (≈) assume the structure as drawn.

How the values were obtained:
[1] = Solubility in water (stirred in water, filtrate analysed by HPLC)
Description: After stirring, the supernatant was filtered by a membrane filter (0.45µm) and a filtate was analyzed by HPLC.

[2] = test system: tubulin (a main constituting protein of the microtubule); experiment: Tubulin polymerization-promoting / depolymerization-inhibiting activity (absorbance at 350 nm); type: biochemical; conditions: for Depolymerization-inhibiting activity / Polymerization-promoting activity: relative activity, paclitaxel taken as 100, 5µM; for Depolymerization-inhibiting activity: absorbance at 350 nm 5 minutes after addition of calcium chloride; for Polymerization-promoting activity: tubulin, 37°C, 15 minutes, absorbance at 350 nm
Description: Next, each of the above-described samples is mixed with tubulin (a main constituting protein of the microtubule) and allowed to react at 37°C for 15 minutes. Absorbance at 350 nm of the reaction solution was measured at 2, 5, 10 and 15 minutes after initiation of the reaction. Also, after the reaction ended, calcium chloride was added and. 5 minutes after its addition, absorbance at 350 nm was again measured. From each measured value the relative activity of each sample was determined such that polymerization-promoting activity and depolymerization - inhibiting activity were taken as 100, and the results are shown in Table 2.

[3] = Stability in aqueous solution; type: physicochemical; conditions: decomposed to paclitaxel
Excerpt: As clearly shown in the Table compared with paclitaxel, the solubility of paclitaxel derivatives show strikingly high values.

[4] = I.Ringer et al., J. Natl. Cancer Inst., 83, 288 (1991); cited from earlier work
[5] = in water, 10 mg in 5 ml water, stirred for 18 hours, filtered 0.45µm, HPLC

SMILES: CC(=O)O[C@H]1C(=O)[C@@]2(C)[C@H]([C@H](OC(=O)c3ccccc3)[C@]3(O)C[C@H](OC(=O)[C@H](OC(=O)COC4O[C@H](CO)[C@@H](O)[C@H](O)[C@H]4O)[C@@H](NC(=O)c4ccccc4)c4ccccc4)C(C)=C1C3(C)C)[C@]1(OC(C)=O)CO[C@@H]1C[C@@H]2O (some centres unmarked) [2'-S-paclitaxel, Glucosyloxyacetyl-2'-paclitaxel]
- solubility in water relative to paclitaxel [1]: 76.5 times
- Solubility [1, 5]: 30.6 µg/mL (≈ 28.5 µM)
- Depolymerization-inhibiting activity [2]: 100
- Polymerization-promoting activity [2]: 52.7
- stability in aqueous solutions [3]: unstable in aqueous solutions

SMILES: CC(=O)O[C@H]1C(=O)[C@@]2(C)[C@H]([C@H](OC(=O)c3ccccc3)[C@]3(O)C[C@H](OC(=O)[C@H](O)[C@@H](NC(=O)c4ccccc4)c4ccccc4)C(C)=C1C3(C)C)[C@]1(OC(C)=O)CO[C@@H]1C[C@@H]2O [Paclitaxel, reference compound]
- Solubility ([1]; 18 h): 0.4 µg/mL (≈ 0.468 µM)
- solubility at 18 h ([1]; water, thermodynamic from solid): 0.4 µg/mL (≈ 0.468 µM)
- Depolymerization-inhibiting activity [2]: 100
- Polymerization-promoting activity [2]: 100

SMILES: CC(=O)O[C@H]1C(=O)[C@]2(C)[C@@H](OC(=O)COC3O[C@H](CO)[C@@H](O)[C@H](O)[C@H]3O)C[C@H]3OC[C@@]3(OC(C)=O)[C@H]2[C@H](OC(=O)c2ccccc2)[C@]2(O)C[C@H](OC(=O)[C@H](OC(=O)COC3O[C@H](CO)[C@@H](O)[C@H](O)[C@H]3O)[C@@H](NC(=O)c3ccccc3)c3ccccc3)C(C)=C1C2(C)C (some centres unmarked) [2',7-S-paclitaxel, Diglucosyloxyacetyl-2',7-paclitaxe]
- solubility in water relative to paclitaxel [1]: 121 times
- Solubility [1, 5]: 48.4 µg/mL (≈ 37.4 µM)
- Depolymerization-inhibiting activity [2]: 77.7
- Polymerization-promoting activity [2]: 40.5
- stability in aqueous solutions [3]: unstable in aqueous solutions

SMILES: CC(=O)O[C@@]12CO[C@@H]1C[C@H](O)[C@@]1(C)C(=O)[C@H](O)C3=C(C)[C@@H](OC(=O)[C@H](O)[C@@H](NC(=O)OC(C)(C)C)c4ccccc4)C[C@@](O)([C@@H](OC(=O)c4ccccc4)[C@H]21)C3(C)C [docetaxel]
- solubility of docetaxel in water relative to paclitaxel [4]: 1.3 times

SMILES: CC(=O)O[C@H]1C(=O)[C@]2(C)[C@@H](OC(=O)COC3O[C@H](CO)[C@@H](O)[C@H](O)[C@H]3O)C[C@H]3OC[C@@]3(OC(C)=O)[C@H]2[C@H](OC(=O)c2ccccc2)[C@]2(O)C[C@H](OC(=O)[C@H](O)[C@@H](NC(=O)c3ccccc3)c3ccccc3)C(C)=C1C2(C)C (some centres unmarked) [7-S-paclitaxel, Glucosyloxyacetyl-7-paclitaxel]
- solubility in water relative to paclitaxel [1]: 36.8 times
- Solubility [1, 5]: 14.7 µg/mL (≈ 13.7 µM)
- Depolymerization-inhibiting activity [2]: 225
- Polymerization-promoting activity [2]: 91.9
- depolymerization-inhibiting activity compared with paclitaxel ([2]; statement in words, comparison with paclitaxel): more than twice as potent as that of paclitaxel
